Source: US7098210B2, “2h-pyridazine-3-one derivatives, pharmaceutical compositions containing the same and a process for the preparation of the active ingredient” (Egis Gyógyszergyár Rt., priority 2001, dated 2006)

How the values were obtained:
male NMRI mice [1] = assay: Inhibition of apomorphine induced climbing on mouse; format: in vivo; conditions: 1 h, po., apomorphine hydrochloride subcutaneously 60 min after treatment
Method: (§1) 1.2 Inhibition of Apomorphine Stereotypy and Climbing on Mouse
(§2) Male NMRI mice of 20 to 24 g body weight were used in the experiments. The animals were treated with the carrier and the test substance (20 ml of volume/kg body weight), respectively, then 30 minutes later, for habituation, they were placed into wire screen cages of 12 cm×12 cm×12 cm size which could be covered by plexyglass plates. After 30 minutes, […] of apomorphine hydrochloride were administered to the mice in a volume of 10 ml/kg, subcutaneously. The measurement of the stereotyped behaviour was begun at once after the treatment with apomorphine and continued for 25 minutes. The measurement was performed by means of a scale having five grades: • 0 point: normal behaviour corresponding to that of the control animals. • 1 point: permanent exploration activity, smelling or moving the head sideways from time to time. • 2 points: intensive continuous head movement or smelling, periodical exploration activity. • 3 points: licking, biting or gnawing from time to time, alternating with intensive smelling or head movement, locomotor activity lasting for a very short time. • 4 points: continuous intensive licking and/or gnawing in the same place without any locomotor or exploration activity.
The posture when the mouse climbed up on the vertical wall with at least three legs was considered as climbing. The evaluation was performed in the last ten minutes of the observation on the basis yes/no (+/−).
The frequency was calculated in each group, then the effect was determined in percentage considering the result obtained for the control group as 100%.
(§3) In this case again chlorpromazine and clozapine were used as the reference substance.

mice = assay: Inhibition of hypermotility induced by phencyclidine (PCP); format: in vivo; conditions: Mus musculus, 1 h, sc., 3 mg/kg phencyclidine intraperitoneally 60 minutes after treatment, read-out: ID50 in mg/kg sc.
male NMRI mice [2] = assay: Inhibition of apomorphine induced stereotypy on mouse; format: in vivo; conditions: apomorphine hydrochloride subcutaneously 60 min after treatment
Method: as §1, §2
Evaluation of stereotypy: in case of each animal, the highest point value obtained during the observation was taken into consideration and recorded, respectively. From the maximum point value, median was calculated for each group which was related to the median of the control group to calculate the effect in percentage.
as §3

male Wistar rats [3] = assay: Inhibition of conditioned avoiding response (CAR), shuttle-box; format: in vivo, rat; conditions: compound given 1 hour before the series of experiment, 50% inhibition dose
Method: 1.1 Inhibition of Conditioned Avoiding Response (CAR)
The antipsychotic (neuroleptic) effect was measured by determining the inhibition of the learned conditioned avoiding reflex. At the beginning of teaching, male Wistar rats of 120 to 150 g body weight were used for the experiments. The experimental apparatus was the so called shuttle-box consisting of two rooms of 24 cm×24.5 cm×23 cm size separated from each other by a wall. The two rooms were connected by a gate of 6 cm×9 cm size. During the test, the task of the animals was to pass from one room to the other through the gate in case of a suitable warning stimulus, thus, avoiding the punishing (unconditioned) stimulus. The warning (conditioned) stimulus appeared in the room where the animal was staying. The conditioned stimulus (CS) was a gleaming (1 Hz) white light lasting for 15 seconds. The unconditioned stimulus (US) was a randomized electric shock to the sole with an intensity of 0.6 mA which appeared in the last 5 seconds of the conditioned stimulus. Passing from one room of the shuttle-box to the other during the conditioned stimulus was considered as avoiding response, while passing during the unconditioned stimulus was considered as escaping response. Both responses stopped the actual stimulus, and the trial was finished. The intertrial interval (ITI) was 15 seconds. 80 trials were performed on a day. The learning performance was measured as the ratio of the number of the successful avoiding responses to the total number of trials in percentage. The effect of the neuroleptics was determined on the animals showing a performance of at least 75% after the stabilization of the conditioned reflex. The test compounds were administered to the rats once weekly, 1 hour before the series of experiment. When evaluating the effect of the neuroleptics in each group, the performance of the animals on the day before was used as control. […] These values are given in Table I. Chlorpromazine [2-chloro-10-(3dimethylaminopropyl)phenothiazine] and clozapine [8-chloro-11-(4methyl-1-piperazinyl)-5H-dibenzo[b,e][1,4]diazepine] were used as the reference substance.

[4] = tested on: isolated right ventricular papillary muscle of the rabbit; assay: Cardiotoxic effect: effective refractory period (ERP) in vitro; conditions: for % change of ERP (1 μM): papillary muscle paced at 1 Hz, vs. baseline
Method: The cardiotoxic effect was determined in isolated right ventricular papillary muscle of the rabbit in vitro.
The modified method of Hackett et al., 1990 was used (Hacket, A. M., Mc Donald S. J., P., Schweingruber, F. and Gartwaite, S. M.: Simple in vitro method to characterize antiarrhythmic agents J. Pharmacol. Methods 23, 107–116, 1990).
The effective refractory period (ERP) was measured in isolated right ventricular papillary muscle of the rabbit in vitro.
The contractions of papillary muscle preparations obtained from New Zealand rabbits weighing 2.5–3.2 kg were evaluated. The contractions (isometrically paced at 1 Hz) were recorded by 4-channel Hugo Sachs apparatus. The effects of the test compounds or references were measured in 1 μM concentration.

male Wistar rats [5] = assay: Cataleptogenous effect (method of Morpurgo); format: in vivo, rat; conditions: for Ratio Cat/CAR (MED/ID50): catalepsy MED divided by CAR ID50; for MED in mg/kg po.: rats, minimum effective dosis inducing catalepsy
Text: The cataleptogenous effect was studied according to the method of Morpurgo [Morpurgo, C., Arch. Int. Pharmacodyn., 137, 84 ([…])]. Male Wistar rats of 220 to 240 g body weight have been used for the examinations. The fore-feet of the rats were placed on a gum stopper, one by one, and it was observed how the animal tolerated the unusual posture. The normal (non-cataleptic) animal removes the foot from the stopper during the measuring time of 10 seconds. If the animal keeps the foot on the stopper during the measuring time, this stiff state accompanied by myotonia is evaluated as catalepsy.

Compound | ED50 (male NMRI mice [1]) [mg/kg] | ED50 (mice) [mg/kg] | Inhibition of stereotypy, ID50 in mg/kg po. (male NMRI mice [2]) [mg/kg] | Conditioned reflex, ID50 in mg/kg (male Wistar rats [3]) | melting point [°C] | % change of ERP (1 μM) [4] [%] | Ratio Cat/CAR (MED/ID50) (male Wistar rats [5]) | MED in mg/kg po. (male Wistar rats [5]) [mg/kg] | cardiotoxic effect (significant prolongation of ERP) ([4]; 1 μM concentration)
Cn1ncc(Cl)c(NCCN2CCC(c3noc4cc(F)ccc34)CC2)c1=O [Example 1, 4-{2-[4-(6-fluoro-1,2-benzisoxazole-3-yl)piperidine-1-yl]ethyl-amino}-5-chloro-2-methyl-2H-pyridazine-3-one] | 0.3 | 0.4 | 0.4 | 0.7 mg/kg | 108 to 109 | – | – | – | –
Cn1ncc(Cl)c(NCCCN2CCC(c3noc4cc(F)ccc34)CC2)c1=O [Example 2, 4-{3-[4-(6-fluoro-1,2-benzisoxazole-3-yl)piperidine-1-yl]propyl-amino}-5-chloro-2-methyl-2H-pyridazine-3-one] | 0.6 | – | 2.0 | 5.8 mg/kg | 117 to 119 | – | – | – | –
O=c1[nH]ncc(Cl)c1NCCCN1CCC(c2noc3cc(F)ccc23)CC1 [Example 3, 4-{3-[4-(6-fluoro-1,2-benzisoxazole-3-yl)piperidine-1-yl]propyl-amino}-5-chloro-2H-pyridazine-3-one] | 0.8 | – | 1.2 | – | 198 to 200 | – | – | – | –
Cn1ncc(NCCN2CCC(c3noc4cc(F)ccc34)CC2)c(Cl)c1=O [Example 4, 4-chloro-5-{2-[4-(6-fluoro-1,2-benzisoxazole-3-yl)piperidine-1-yl]ethyl-amino}-2-methyl-2H-pyridazine-3-one] | 0.06 | 0.07 | 0.2 | 0.3 to 0.5 mg/kg | – | 11.1 ± 1.7 | about 6 | 3 | –
Cn1ncc(NCCCN2CCC(c3noc4cc(F)ccc34)CC2)c(Cl)c1=O [Example 5, 4-chloro-5-{3-[4-(6-fluoro-1,2-benzisoxazole-3-yl)piperidine-1-yl]propyl-amino}-2-methyl-2H-pyridazine-3-one] | 0.6 | 0.46 | 2.0 | ≦3.0 mg/kg | 200 to 202 | 5.3 ± 0.4 | >3 | 10 | –
Cn1ncc(NCCN2CCC(c3noc4cc(F)ccc34)CC2)cc1=O [Example 6, 5-{2-[4-(6-fluoro-1,2-benzisoxazole-3-yl)piperidine-1-yl]ethyl-amino}-2-methyl-2H-pyridazine-3-one] | – | 0.9 | – | – | 200 to 202 | 6.1 ± 1.9 | – | >30 | –
Cn1ncc(NCCCN2CCC(c3noc4cc(F)ccc34)CC2)cc1=O [Example 7, 5-{3-[4-(6-fluoro-1,2-benzisoxazole-3-yl)piperidine-1-yl]propyl-amino}-2-methyl-2H-pyridazine-3-one] | – | 0.4 | – | – | 163 to 165 | – | – | ~30 | –
O=c1[nH]ncc(NCCN2CCC(c3noc4cc(F)ccc34)CC2)c1Cl [Example 8, 5-{2-[4-(6-fluoro-1,2-benzisoxazole-3-yl)piperidine-1-yl]ethyl-amino}-4-chloro-2H-pyridazine-3-one] | – | 0.2 | – | – | 229 to 231 | 1.5 ± 1.5 | – | ~10 | –
O=c1cc(NCCN2CCC(c3noc4cc(F)ccc34)CC2)cn[nH]1 [Example 9, 5-{2-[4-(6-fluoro-1,2-benzisoxazole-3-yl)piperidine-1-yl]ethyl-amino}-2H-pyridazine-3-one] | – | 1.4 | – | – | 97 to 99 | 0.4 ± 1.1 | – | >10 | –
COc1cc(C(C)=O)ccc1OCCCN1CCC(c2noc3cc(F)ccc23)CC1 [Iloperidone, reference compound] | – | – | – | – | – | 31.9 ± 7.8 | – | – | considerable and significant cardiotoxic potential
CN(C)CCCN1c2ccccc2Sc2ccc(Cl)cc21 [chlorpromazine, 2-chloro-10-(3dimethylaminopropyl)phenothiazine, reference compound] | 6.1 | – | 6.8 | 13.2 mg/kg | – | – | – | – | –
CN1CCN(C2=Nc3cc(Cl)ccc3Nc3ccccc32)CC1 [clozapine, 8-chloro-11-(4methyl-1-piperazinyl)-5H-dibenzo[b,e][1,4]diazepine, reference compound] | 11.8 | 2.9 | 35.4 | 21.3 mg/kg | – | – | – | – | –
O=C(CCCN1CCC(O)(c2ccc(Cl)cc2)CC1)c1ccc(F)cc1 [haloperidol, 4-(4-chlorophenyl-4-hydroxy-1-piperidinyl)-1-(4-fluorophenyl)-1-butanone, reference compound] | – | 1.2 | – | – | – | – | – | 1 | –
